Experimental data: PubChem BioAssay (NCI)
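Grown in 96-well plates, cells were treated for 48 hours with each compound at five concentrations. Insufficient inhibition: endpoint recorded as highest concentration tested. GI50: concentration for 50% inhibition of growth. TGI is the concentration that stops growth completely.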

Assays:
Assay in all cases: NCI-60 cell line screen, 48 h
A549 NSCLC = system: A549 NSCLC
ACHN renal = system: ACHN renal
HCC-2998 colon = system: HCC-2998 colon
M14 melanoma = system: M14 melanoma
OVCAR-3 ovarian = system: OVCAR-3 ovarian
OVCAR-8 ovarian = system: OVCAR-8 ovarian
SF-539 CNS = system: SF-539 CNS
SW-620 colon = system: SW-620 colon
UACC-62 melanoma = system: UACC-62 melanoma
UO-31 renal = system: UO-31 renal

With `C=CCN1CC2CON(C(=O)C(OC)(c3ccccc3)C(F)(F)F)C2C1C(C)C` (stereo unspecified) the GI50 (A549 NSCLC) was 34.6 µg/mL, the GI50 (ACHN renal) was 38.1 µg/mL and the GI50 (HCC-2998 colon) was 18.1 µg/mL. The TGI (HCC-2998 colon) was 38.8 µg/mL, the GI50 (M14 melanoma) was 30.3 µg/mL and the GI50 (OVCAR-3 ovarian) was 36.3 µg/mL. It also gave a GI50 (OVCAR-8 ovarian) of 57.7 µg/mL, a GI50 (SF-539 CNS) of 66.5 µg/mL and a GI50 (SW-620 colon) of 62.8 µg/mL. The GI50 (UACC-62 melanoma) was 45.1 µg/mL and the GI50 (UO-31 renal) was 26.3 µg/mL.
With `CC1CN1c1c(C(=O)/C=C/c2ccc(Cl)cc2)c(-c2ccccc2)nn(C)c1=O` (stereo unspecified) the TGI (A549 NSCLC) was over 10 µM, the TGI (ACHN renal) was 5.27 µM and the TGI (HCC-2998 colon) was 4.2 µM. For the same compound, the TGI (M14 melanoma) was 5.63 µM, the TGI (OVCAR-3 ovarian) was 6.79 µM and the TGI (OVCAR-8 ovarian) was 5.67 µM. For the same compound, the TGI (SF-539 CNS) was 4.14 µM, the TGI (SW-620 colon) was 6.81 µM and the TGI (UACC-62 melanoma) was 5.69 µM. The TGI (UO-31 renal) was over 10 µM.
`CCOC(CN(C)C(=S)Nc1cccc2ccccc12)OCC` gave a TGI (A549 NSCLC) of over 10 µM, a TGI (ACHN renal) of over 10 µM and a TGI (HCC-2998 colon) of over 10 µM. The TGI (M14 melanoma) was over 10 µM, the TGI (OVCAR-3 ovarian) was over 10 µM and the TGI (OVCAR-8 ovarian) was over 10 µM. The TGI (SF-539 CNS) was over 10 µM, the TGI (SW-620 colon) was over 10 µM and the TGI (UACC-62 melanoma) was over 10 µM. For the same compound, the TGI (UO-31 renal) was over 10 µM.
`O=C(CSC(c1ccccc1)c1ccccc1)N/N=C/c1ccco1` was tested, and the GI50 (A549 NSCLC) was 1.54 µM, the TGI (A549 NSCLC) was 5.28 µM and the GI50 (ACHN renal) was 1.82 µM. For the same compound, the TGI (ACHN renal) was 3.62 µM, the GI50 (HCC-2998 colon) was 1.62 µM and the TGI (HCC-2998 colon) was 3.58 µM. The GI50 (M14 melanoma) was 1.49 µM, the TGI (M14 melanoma) was 2.69 µM and the GI50 (OVCAR-3 ovarian) was 1.92 µM. The TGI (OVCAR-3 ovarian) was 3.49 µM, the GI50 (OVCAR-8 ovarian) was 1.84 µM and the TGI (OVCAR-8 ovarian) was 6.67 µM. It also gave a GI50 (SF-539 CNS) of 2.07 µM, a TGI (SF-539 CNS) of 7.55 µM and a GI50 (SW-620 colon) of 2.9 µM. The TGI (SW-620 colon) was over 11.6 µM, the GI50 (UACC-62 melanoma) was 2.52 µM and the TGI (UACC-62 melanoma) was 16.2 µM. For the same compound, the GI50 (UO-31 renal) was 2.03 µM and the TGI (UO-31 renal) was 10.3 µM.
`COc1ccc2c(Oc3ccc(NC(=O)c4c(C)n(CC(C)(C)O)n(-c5ccccc5)c4=O)nc3)ccnc2c1` was tested, and the GI50 (A549 NSCLC) was 20.3 µM, the TGI (A549 NSCLC) was over 100 µM and the GI50 (ACHN renal) was 5.02 µM. The TGI (ACHN renal) was over 100 µM, the GI50 (HCC-2998 colon) was 34 µM and the TGI (HCC-2998 colon) was over 100 µM. For the same compound, the GI50 (M14 melanoma) was 6.29 µM, the TGI (M14 melanoma) was over 100 µM and the GI50 (OVCAR-3 ovarian) was 19.5 µM. The TGI (OVCAR-3 ovarian) was 70.6 µM, the GI50 (OVCAR-8 ovarian) was 9.48 µM and the TGI (OVCAR-8 ovarian) was over 100 µM. The GI50 (SF-539 CNS) was 5.85 µM, the TGI (SF-539 CNS) was 50.9 µM and the GI50 (SW-620 colon) was 34.2 µM. The TGI (SW-620 colon) was over 100 µM, the GI50 (UACC-62 melanoma) was 6.14 µM and the TGI (UACC-62 melanoma) was 42.2 µM. For the same compound, the GI50 (UO-31 renal) was 4.41 µM and the TGI (UO-31 renal) was over 100 µM.
For `C[C@H]1CCC/C=C/[C@@H]2C[C@H](O)C[C@H]2[C@H](O)[C@@H](SCC(O)CO)CC(=O)O1` (stereo partly specified), the GI50 (A549 NSCLC) was 34.4 µM, the TGI (A549 NSCLC) was over 100 µM and the GI50 (ACHN renal) was 25.7 µM. For the same compound, the TGI (ACHN renal) was 92.8 µM, the GI50 (HCC-2998 colon) was 14.3 µM and the TGI (HCC-2998 colon) was 42.2 µM. For the same compound, the GI50 (M14 melanoma) was 12.4 µM, the TGI (M14 melanoma) was over 100 µM and the GI50 (OVCAR-3 ovarian) was 22.3 µM. The TGI (OVCAR-3 ovarian) was 63.3 µM, the GI50 (OVCAR-8 ovarian) was over 100 µM and the TGI (OVCAR-8 ovarian) was over 100 µM. For the same compound, the GI50 (SF-539 CNS) was 31.8 µM, the TGI (SF-539 CNS) was over 100 µM and the GI50 (SW-620 colon) was 30.9 µM. It also gave a TGI (SW-620 colon) of over 100 µM, a GI50 (UACC-62 melanoma) of 16.3 µM and a TGI (UACC-62 melanoma) of 82.2 µM. It also gave a GI50 (UO-31 renal) of 21.4 µM and a TGI (UO-31 renal) of 71 µM.
